Assay results: PMC4502315, “High Potency of a Novel Resveratrol Derivative, 3,3′,4,4′-Tetrahydroxy-trans-stilbene, against Ovarian Cancer Is Associated with an Oxidative Stress-Mediated Imbalance between DNA Damage Accumulation and Repair” (Oxidative Medicine and Cellular Longevity, 2015)
Read-outs that look alike come from different tables or passages of the source.

What was measured:
HOSE cells [1] = experiment: Oxidative DNA damage (8-OH-dG immunoassay), HOSE cells; assay type: cell-based, human; settings: 24 h, percentage of control cells
Description: (§1) Oxidative DNA damage was assessed by measuring the 8-OH-dG concentration with a competitive immunoassay (Cell Biolabs Inc.), as per manufacturer's instructions. The efficiency of 8-OH-dG repair was estimated after cell recovery for 24 h in standard growth medium. In order to examine the activity of DNA glycosylase I, reverse transcription PCR was performed. RNA extraction was carried out using the RNA Bee (Tel-Test, Friendswood, Texas, USA) and purified according to the manufacturer's protocol. One microgram of RNA was reverse transcribed into cDNA with random hexamer primers, and cDNA was subjected to PCR. The profile of the replication cycles was denaturation at 94°C for 50 s, annealing at 58°C for 50 s, and polymerization at 72°C for 1 min. In each reaction, the expression of glyceraldehyde-3-phosphate dehydrogenase (GAPDH) served as the internal control. The primers used for PCR were as follows: hOGG1 forward, 5′-[…]-3′; hOGG1 reverse, 5′-TAGCCCGCCCTGTTCTTC-3′ designed to amplify a 551-bp region; GAPDH forward, 5′-CCATGGAGAAGGCTGGGG-3′; and GAPDH reverse 5′-[…]-3′ designed to amplify a 194-bp region (total number of cycles: 28). The PCR products were separated on 3% agarose gels stained with ethidium bromide and then visualized.

catalase (CAT) [2] = experiment: CAT activity, SKOV-3; assay type: cell-based, human; settings: 24 h, 10, 50, 100 μM tested
Description: (§2) Total activity of superoxide dismutase (SOD) was measured in cell lysates with a commercially available kit (R&D Systems Europe, Abingdon, UK), while the activity of catalase (CAT) was estimated by using the OxiSelect Catalase Activity Assay Kit (Cell Biolabs Inc., San Diego, CA, USA). Both assays were performed according to the manufacturer's instructions.

catalase (CAT) [3] = experiment: CAT activity, OVCAR-3; assay type: cell-based, human; settings: 24 h, 10, 50, 100 μM tested
Description: as §2

A2780 cells = experiment: Cell proliferation (CFDA SE), A2780; assay type: cell-based, human; settings: low-density cultures, 24 h, 10, 50, 100 μM tested
Description: Cell proliferative potential was determined using Cell Proliferation Kit I (PromoKine, Heidelberg, Germany) according to the manufacturer's instructions. In brief, cells were probed for 15 min with 5-(and 6)-carboxyfluorescein diacetate, a succinimidyl ester (CFDA SE; 2 μM) which diffuses into cells, covalently binds to proteins, and becomes fluorescent upon its hydrolysis by intracellular esterases. The fluorescence emitted by the cells (the dye is inherited by the daughter cells through successive divisions) was recorded using a Victor2 spectrofluorometer (Perkin-Elmer, Turku, Finland) with excitation at 435 nm and emission at 535 nm.

HPMCs = experiment: Oxidative DNA damage (8-OH-dG immunoassay), HPMCs; assay type: cell-based, human; settings: 24 h, percentage of control cells
Description: as §1

p38 MAPK [4] = experiment: p38 MAPK activation (FACE ELISA), HPMCs; assay type: cell-based, human; settings: 24 h, percentage of control cells
Description: (§3) Activation of p38 MAPK was examined using the Fast Activated Cell-Based ELISA (FACE) p38 kit (Active Motif) according to the manufacturer's instructions. In brief, cells were fixed with 4% formaldehyde and incubated with a primary antibody that recognizes either phosphorylated p38 or total p38 overnight at 4°C. Then the cells were washed and incubated with a secondary HRP-conjugated antibody for 1 h at room temperature. The color reaction that developed was read using a spectrofluorometer at 450 nm wavelength.
(§4) The results were expressed as a ratio of phosphorylated to total p38 activity.

SKOV-3 cells = experiment: ROS production (H2DCFDA), SKOV-3; assay type: cell-based, human; settings: 24 h, 10, 50, 100 μM tested
Description: (§5) ROS production was assessed in cells probed with a fluorescent dye, 2′,7′-dichlorodihydrofluorescein diacetate (H2DCFDA; 5 μM) (Molecular Probes, Eugene, USA) for 45 min at 37°C. Fluorescence intensity in cell lysates was monitored in a Victor2 spectrofluorometer with excitation at 485 nm and emission at 535 nm.

HOSE cells [5] = experiment: LDH release assay, HOSE cells; assay type: cell-based, human; settings: Homo sapiens, 24 h, CalcuSyn
OVCAR-3 cells [6] = experiment: Oxidative DNA damage (8-OH-dG immunoassay), OVCAR-3; assay type: cell-based, human; settings: 24 h, 10, 50, 100 μM tested
Description: as §1

p38 MAPK [7] = experiment: p38 MAPK activation (FACE ELISA), HOSE cells; assay type: cell-based, human; settings: 24 h, percentage of control cells
Description: as §3, §4

OVCAR-3 cells [8] = experiment: ROS production (H2DCFDA), OVCAR-3; assay type: cell-based, human; settings: 24 h, 10, 50, 100 μM tested
Description: as §5

HOSE cells [9] = experiment: ROS production (H2DCFDA), HOSE cells; assay type: cell-based, human; settings: 24 h, percentage of control cells
Description: as §5

OVCAR-3 cells [10] = experiment: Apoptosis (Hoechst 33258), OVCAR-3; assay type: cell-based, human; settings: 24 h, 10, 50, 100 μM tested
Description: Identification of apoptosis was based on the presence of DNA condensation in cells stained with a fluorescent dye, Hoechst 33258 (Molecular Probes, Eugene, OR). Cells were grown on Lab-Tek Chamber Slides (Nunc, Roskilde, Denmark), fixed with 4% formaldehyde for 10 min and washed twice with PBS. Then the cells were incubated with Hoechst 33258 (0.1 μg/mL) for 5 min in the dark. After washing with PBS, stained nuclei were observed and counted under a Zeiss Axio Observer D1 fluorescence microscope (Carl Zeiss, Jena, Germany). The activity of caspases 3, 8, and 9 was quantified in the cell lysates using specific colorimetric kits (Abcam, Cambridge, UK) according to the manufacturer's instructions.

SKOV-3 = experiment: MTT viability assay, SKOV-3; assay type: cell-based; settings: Homo sapiens; for IC50: SK-OV-3, 24 h
Description: Cell viability was assessed with the MTT test and with lactate dehydrogenase (LDH) release assay. As per the MTT method, normal and cancer cells were seeded into 96-well plates at high density and allowed to attach overnight. Then they were incubated in a medium containing 1.25 mg/mL of the MTT salt [3-(4,5-dimethylthiazol-2-yl)-2,5-diphenyltetrazolium bromide] for 24 h at 37°C. The generated formazan was solubilized with 20% sodium dodecyl sulphate and 50% N,N-dimethylformamide. Absorbance of the converted dye was recorded at 595 nm with a reference wavelength of 690 nm.
In order to examine the effect of 3,3′,4,4′-THS on the viability of ovarian cancer cells and to compare its activity with RVT, subconfluent cultures of A2780, OVCAR-3, and SKOV-3 cells were subjected to a wide range of stilbene concentrations (0–500 μM) for 24 h; then MTT and LDH release assays were performed.

[11] = CalcuSyn, read-out: IC50, MTT assay

IC50 (HOSE cells [5]) [µM] | Structure (SMILES) | 8-OH-dG (HOSE cells [1]; 10 μM) [%] | 8-OH-dG (HOSE cells [1]; 50 μM) | 8-OH-dG (HOSE cells [1]; 100 μM) | CAT activity, effect in words (catalase (CAT) [2]) | CAT activity, effect in words (catalase (CAT) [3]) | proliferation, effect in words (A2780 cells) | 8-OH-dG (HPMCs; 10 μM) | 8-OH-dG (HPMCs; 50 μM) | 8-OH-dG (HPMCs; 100 μM) | p38 MAPK (p38 MAPK [4]; 10 μM) | p38 MAPK (p38 MAPK [4]; 50 μM) | p38 MAPK (p38 MAPK [4]; 100 μM) [%] | generation of ROS, effect in words (SKOV-3 cells) | concentration of 8-OH-dG (oxidative DNA damage), effect in words (OVCAR-3 cells [6]) | p38 MAPK (p38 MAPK [7]; 10 μM) [%] | p38 MAPK (p38 MAPK [7]; 50 μM) [%] | p38 MAPK (p38 MAPK [7]; 100 μM) [%] | generation of ROS, effect in words (OVCAR-3 cells [8]) | ROS (HOSE cells [9]; 10 μM) | further results
421 | Oc1ccc(/C=C/c2cc(O)cc(O)c2)cc1 [RVT, 3,4′,5-trihydroxy-trans-stilbene, reference compound] | 103 ± 5 | 102 ± 5% | 82 ± 4^∗ % | stimulated the enzyme at 10 μM in the OVCAR-3 cells, at 50 μM in the A2780, OVCAR-3, and SKOV-3 cells, and at 100 μM in the OVCAR-3 and SKOV-3 cells | stimulated the enzyme at 10 μM in the OVCAR-3 cells, at 50 μM in the A2780, OVCAR-3, and SKOV-3 cells, and at 100 μM in the OVCAR-3 and SKOV-3 cells | effectively reduced the expandability | 103 ± 3% | 103 ± 2% | 102 ± 5% | 113 ± 16% | 103 ± 2% | 105 ± 7 | stimulated the release of ROS | evident only at 100 μM | 103 ± 5 | 107 ± 10 | 108 ± 11 | stimulated the release of ROS | 103 ± 3% | ROS (HOSE cells [9]; 50 μM): 105 ± 4%; ROS (HOSE cells [9]; 100 μM): 121 ± 7^∗ %; incidence of apoptosis (rise in percentage of death cells), effect in words (OVCAR-3 cells [10]): at 100 μM for the OVCAR-3 cells; IC50 (SKOV-3; [11]): 380 µM
532 | Oc1ccc(/C=C/c2ccc(O)c(O)c2)cc1O [3,3′,4,4′-THS, 3,3′,4,4′-tetrahydroxy-trans-stilbene] | 103 ± 3 | 76 ± 3^∗# % | 71 ± 2^∗# % | downregulated it in the SKOV-3 cells at 50 and 100 μM | upregulated it in the OVCAR-3 cells at 10 μM, reduced it at 50 and 100 μM | evident at as low a concentration as 10 μM | 91 ± 2^∗# % | 88 ± 3^∗# % | 76 ± 3^∗# % | 82 ± 3^∗# % | 81 ± 6^∗# % | 104 ± 2 | remarkably stronger | increasing the concentration of 8-OH-dG in the OVCAR-3 and SKOV-3 cells starting from a dose of 10 μM | 106 ± 5 | 104 ± 4 | 100 ± 3 | remarkably stronger | 75 ± 4^∗# % | ROS (HOSE cells [9]; 50 μM): 72 ± 3^∗# %; ROS (HOSE cells [9]; 100 μM): 99 ± 4 %; incidence of apoptosis (rise in percentage of death cells), effect in words (OVCAR-3 cells [10]): evident starting from the lowest concentration of 10 μM; viability at 10 µM (SKOV-3; SK-OV-3, 10 μM, 24 h, percentage of control cells): 40 ± 2%; viability at 50 µM (SKOV-3; SK-OV-3, 50 μM, 24 h, percentage of control cells): 39 ± 4%; viability at 100 µM (SKOV-3; SK-OV-3, 100 μM, 24 h, percentage of control cells): 35 ± 2%; IC50 (SKOV-3; [11]): 8 µM; IC50 (SKOV-3; read-out: IC50 (range over MTT and LDH release assays)): 8 to 10 µM
